Assay results from patent publication US20220386606A1, “SPECIFICALLY SUBSTITUTED 3-PHENYL-5-SPIROCYCLOPENTYL-3-PYRROLIN-2-ONES AND THEIR USE AS HERBICIDES” (Bayer Aktiengesellschaft, priority 2019, published 2022).

What was measured:
ECHCG [1] = test: Post-emergence herbicidal action against ECHCG; type: in vivo, Echinochloa crus-galli; settings: 80 g/ha, visual assessment about 3 weeks after treatment vs untreated controls
Method in brief: (§1)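 Herbicidal action is rated visually in percent against untreated controls, where 100% means dead plants and 0% means no difference. Ratings come about 3 weeks after foliar spraying of one-leaf-stage plants with aqueous WP or EC preparations plus 0.2% wetting agent at 600 to 800 l/ha.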

SETVI [2] = test: Post-emergence herbicidal action against SETVI; type: in vivo, Setaria viridis; settings: 80 g/ha, visual assessment about 3 weeks after treatment vs untreated controls
Method in brief: as §1

ECHCG [3] = test: Pre-emergence herbicidal action against ECHCG; type: in vivo, Echinochloa crus-galli; settings: 320 g/ha, scored visually after 3 weeks vs untreated controls
Method in brief: (§2)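 Percent activity (0% = like control, 100% = dead) read visually after a 3-week greenhouse period. Application: aqueous WP or EC formulations sprayed onto soil covering sown seeds, water rate 600 to 800 L/ha with 0.2% wetting agent.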

DIGSA [4] = test: Pre-emergence herbicidal action against DIGSA; type: in vivo, Digitaria sanguinalis; settings: 320 g/ha, scored visually after 3 weeks vs untreated controls
Method in brief: as §2

LOLRI [5] = test: Pre-emergence herbicidal action against LOLRI (Table 8, titled post-emergence at 320 g/ha); type: in vivo, Lolium rigidum; settings: table stands in the pre-emergence section
Method in brief: as §2

AMARE = test: Pre-emergence herbicidal action against AMARE; type: in vivo, Amaranthus retroflexus; settings: 320 g/ha
Method in brief: as §2

VIOTR [6] = test: Post-emergence herbicidal action against VIOTR; type: in vivo, Viola tricolor; settings: 80 g/ha, visual assessment about 3 weeks after treatment vs untreated controls
Description: Seeds of monocotyledonous and dicotyledonous weed and crop plants are laid out in sandy loam soil in wood-fiber pots, covered with soil and cultivated in a greenhouse under good growth conditions. 2 to 3 weeks after sowing, the test plants are treated at the one-leaf stage. The compounds of the invention, formulated in the form of wettable powders (WP) or as emulsion concentrates (EC), are then sprayed onto the green parts of the plants as aqueous suspension or emulsion at a water application rate equating to 600 to 800 l/ha with addition of 0.2% wetting agent. After the test plants have been left to stand in the greenhouse under optimal growth conditions for about 3 weeks, the action of the preparations is assessed visually in comparison to untreated controls (herbicidal action in percent (%): 100% activity=the plants have died, 0% activity=like control plants).

VERPE = test: Pre-emergence herbicidal action against VERPE; type: in vivo, Veronica persica; settings: 320 g/ha
Method in brief: as §2

ALOMY [7] = test: Pre-emergence herbicidal action against ALOMY; type: in vivo, Alopecurus myosuroides; settings: 320 g/ha, scored visually after 3 weeks vs untreated controls
Method in brief: as §2

DIGSA [8] = test: Post-emergence herbicidal action against DIGSA; type: in vivo, Digitaria sanguinalis; settings: 80 g/ha, visual assessment about 3 weeks after treatment vs untreated controls
Method in brief: as §1

AVEFA [9] = test: Pre-emergence herbicidal action against AVEFA; type: in vivo, Avena fatua; settings: 320 g/ha, scored visually after 3 weeks vs untreated controls
Method in brief: as §2

AVEFA [10] = test: Post-emergence herbicidal action against AVEFA; type: in vivo, Avena fatua; settings: 80 g/ha, visual assessment after about 3 weeks
Method in brief: as §1

SETVI [11] = test: Pre-emergence herbicidal action against SETVI; type: in vivo, Setaria viridis; settings: 320 g/ha, scored visually after 3 weeks vs untreated controls
Method in brief: as §2

LOLRI [12] = test: Post-emergence herbicidal action against LOLRI; type: in vivo, Lolium rigidum; settings: 80 g/ha, visual assessment about 3 weeks after treatment vs untreated controls
Method in brief: as §1

VIOTR [13] = test: Pre-emergence herbicidal action against VIOTR; type: in vivo, Viola tricolor; settings: 320 g/ha
Method in brief: as §2

ALOMY [14] = test: Post-emergence herbicidal action against ALOMY; type: in vivo, Alopecurus myosuroides; settings: 80 g/ha, visual assessment after about 3 weeks
Method in brief: as §1

MATIN = test: Pre-emergence herbicidal action against MATIN; type: in vivo; settings: 320 g/ha
Method in brief: as §2

POLCO = test: Pre-emergence herbicidal action against POLCO; type: in vivo, Polygonum convolvulus; settings: 320 g/ha
Method in brief: as §2

ABUTH [15] = test: Pre-emergence herbicidal action against ABUTH; type: in vivo, Abutylon threophrasti; settings: 320 g/ha
Description: Seeds of monocotyledonous and dicotyledonous weed plants and crop plants are laid out in sandy loam soil in wood-fiber pots and covered with soil. The compounds of the invention, formulated in the form of wettable powders (WP) or as emulsion concentrates (EC), are then applied to the surface of the covering soil as aqueous suspension or emulsion at a water application rate equating to 600 to 800 L/ha with addition of 0.2% wetting agent.
After the treatment, the pots are placed in a greenhouse and kept under good growth conditions for the trial plants. The damage to the test plants is scored visually after a test period of 3 weeks by comparison with untreated controls (herbicidal activity in percent (%): 100% activity=the plants have died, 0% activity=like control plants).

ABUTH [16] = test: Post-emergence herbicidal action against ABUTH; type: in vivo, Abutylon threophrasti; settings: 80 g/ha, visual assessment about 3 weeks after treatment vs untreated controls
Method in brief: as §1

CC#Cc1cc(C)c(C2=C(OC(=O)OCC)C3(CCC(COCC)C3)NC2=O)c(Br)c1 (stereo not shown) [Example P-35]
80%: Pre-emergence action against VERPE in % (VERPE) | Post-emergence action against AVEFA in % (AVEFA [10])
100%: Post-emergence action against SETVI in % (SETVI [2]) | Pre-emergence action against ECHCG in % (ECHCG [3]) | Pre-emergence action against DIGSA in % (DIGSA [4]) | Pre-emergence herbicidal action against LOLRI in % (LOLRI [5]) | Pre-emergence action against AMARE in % (AMARE) | Pre-emergence action against ALOMY in % (ALOMY [7]) | Post-emergence action against DIGSA in % (DIGSA [8]) | Pre-emergence action against AVEFA in % (AVEFA [9]) | Pre-emergence action against SETVI in % (SETVI [11]) | Post-emergence action against LOLRI in % (LOLRI [12]) | Pre-emergence action against VIOTR in % (VIOTR [13]) | Post-emergence action against ALOMY in % (ALOMY [14])
90%: Post-emergence action against ECHCG in % (ECHCG [1]) | Post-emergence action against VIOTR in % (VIOTR [6])

CC#Cc1cc(C)c(C2=C(OC(=O)OCC)C3(CCC(COCC)C3)NC2=O)c(OC)c1 (stereo not shown) [Example P-49]
100%: Post-emergence action against ECHCG in % (ECHCG [1]) | Post-emergence action against SETVI in % (SETVI [2]) | Pre-emergence action against ECHCG in % (ECHCG [3]) | Pre-emergence action against DIGSA in % (DIGSA [4]) | Pre-emergence herbicidal action against LOLRI in % (LOLRI [5]) | Pre-emergence action against ALOMY in % (ALOMY [7]) | Pre-emergence action against AVEFA in % (AVEFA [9]) | Pre-emergence action against SETVI in % (SETVI [11]) | Post-emergence action against LOLRI in % (LOLRI [12]) | Pre-emergence action against VIOTR in % (VIOTR [13]) | Post-emergence action against ALOMY in % (ALOMY [14])
80%: Pre-emergence action against MATIN in % (MATIN) | Post-emergence action against VIOTR in % (VIOTR [6]) | Pre-emergence action against VERPE in % (VERPE)
90%: Post-emergence action against DIGSA in % (DIGSA [8]) | Post-emergence action against AVEFA in % (AVEFA [10])

CC#Cc1cc(C)c(C2=C(OC(=O)OCC)C3(CCC(COCCOC)C3)NC2=O)c(Cl)c1 (stereo not shown) [Example P-75]
100%: Post-emergence action against ECHCG in % (ECHCG [1]) | Post-emergence action against SETVI in % (SETVI [2]) | Pre-emergence action against ECHCG in % (ECHCG [3]) | Pre-emergence action against DIGSA in % (DIGSA [4]) | Pre-emergence herbicidal action against LOLRI in % (LOLRI [5]) | Pre-emergence action against AMARE in % (AMARE) | Pre-emergence action against ALOMY in % (ALOMY [7]) | Pre-emergence action against AVEFA in % (AVEFA [9]) | Pre-emergence action against SETVI in % (SETVI [11]) | Post-emergence action against LOLRI in % (LOLRI [12]) | Pre-emergence action against VIOTR in % (VIOTR [13]) | Post-emergence action against ALOMY in % (ALOMY [14])
90%: Pre-emergence action against MATIN in % (MATIN) | Pre-emergence action against VERPE in % (VERPE) | Post-emergence action against DIGSA in % (DIGSA [8]) | Post-emergence action against AVEFA in % (AVEFA [10])
80%: Pre-emergence action against POLCO in % (POLCO) | Pre-emergence action against ABUTH in % (ABUTH [15])

CC#Cc1cc(F)c(C2=C(OC(=O)OCC)C3(CCC(COCCC)C3)NC2=O)c(OC)c1 (stereo not shown) [Example P-82]
80%: Post-emergence action against VIOTR in % (VIOTR [6])
90%: Pre-emergence action against AMARE in % (AMARE) | Post-emergence action against DIGSA in % (DIGSA [8]) | Pre-emergence action against AVEFA in % (AVEFA [9]) | Pre-emergence action against VIOTR in % (VIOTR [13])
100%: Post-emergence action against ECHCG in % (ECHCG [1]) | Post-emergence action against SETVI in % (SETVI [2]) | Pre-emergence action against ECHCG in % (ECHCG [3]) | Pre-emergence action against DIGSA in % (DIGSA [4]) | Pre-emergence herbicidal action against LOLRI in % (LOLRI [5]) | Pre-emergence action against POLCO in % (POLCO) | Pre-emergence action against ALOMY in % (ALOMY [7]) | Pre-emergence action against SETVI in % (SETVI [11]) | Post-emergence action against LOLRI in % (LOLRI [12]) | Post-emergence action against ALOMY in % (ALOMY [14])

CC#Cc1cc(C)c(C2=C(OC(=O)OCC)C3(CCC(COCCC)C3)NC2=O)c(Cl)c1 (stereo not shown) [Example P-87]
80%: Pre-emergence action against POLCO in % (POLCO) | Pre-emergence action against VERPE in % (VERPE) | Post-emergence action against ABUTH in % (ABUTH [16]) | Pre-emergence action against ABUTH in % (ABUTH [15]) | Post-emergence action against AVEFA in % (AVEFA [10])
90%: Pre-emergence action against VIOTR in % (VIOTR [13]) | Post-emergence action against ALOMY in % (ALOMY [14])
100%: Post-emergence action against ECHCG in % (ECHCG [1]) | Post-emergence action against SETVI in % (SETVI [2]) | Pre-emergence action against ECHCG in % (ECHCG [3]) | Pre-emergence action against DIGSA in % (DIGSA [4]) | Pre-emergence herbicidal action against LOLRI in % (LOLRI [5]) | Pre-emergence action against ALOMY in % (ALOMY [7]) | Post-emergence action against DIGSA in % (DIGSA [8]) | Pre-emergence action against AVEFA in % (AVEFA [9]) | Pre-emergence action against SETVI in % (SETVI [11]) | Post-emergence action against LOLRI in % (LOLRI [12])
